Assays:
[1] = tested on: complément; test: Complement activation (hemolytic concentration 50, CH 50); assay type: biochemical; parameters: unit not given here; conditions: higher CH 50 = less complement activation, better tolerance
Excerpt: Les travaux d'Elliott C. Lasser (Investig. Radiol., 1974, 9, 4 6A) ont montré que les produits de contraste activent le complément, qui est un ensemble de protéines sériques dont l'activation peut conduire à des réactions anaphylactiques graves.
La mesure de cette activation est effectuée par la détermination de la concentration hémolytique 50 désignée CH 50. On estime que les produits moins activateurs du complément, c'est-à-dire ayant une CH 50 plus élevée , provoquent moins d'effets secondaires de type anaphylactiques et présentent donc une meilleure tolérance.

[2] = X-ray opacity measured via film densitometry, relative to Hexabrix; assay type: physicochemical; conditions: aqueous solutions of methylglucamine salts, same number of moles as Hexabrix (32 % iodine), X-ray source 70 kV
Excerpt: L'opacité a été mesurée indirectement à l'aide de l'impression produite sur un film photographique par un faisceau de rayons X traversant une cuve contenant une solution aqueuse des composés. La transparence du film après développement a été mesurée à l'aide d'un densi- tomètre optique. Dans chaque cas, la mesure a été effectuée sur le même film et avec la même source de rayons X (70 kV) par comparaison avec un produit opacifiant servant de référence.
Comme produit de référence, on a utilisé l'Hexa- brix qui est une solution de sels de sodium et de méthyl- glucamine de l'acide ioxaglique à 32 % en iode.
Les composés selon l'invention ont été testés sous forme de solutions aqueuses de leurs sels de méthyl- glucamine contenant le même nombre de moles de composés que l'Hexabrix.

Structure (SMILES)	CH 50 [1]	Opacité relative/Hexabrix [2]
CNC(=O)c1c(I)c(NC(=O)CNC(=O)c2c(I)cc(I)c(N(C)C(C)=O)c2I)c(I)c(C(=O)O)c1I [Analogue complètement iodé du composé 5, reference compound]	3,8	–
CNC(=O)c1c(Br)c(C(=O)NCC(=O)Nc2c(I)c(C(=O)O)c(I)c(C(=O)NCCO)c2I)c(Br)c(N(C)C(C)=O)c1Br [Composé 2, acide triiodo-2,4,6 N-hydroxyéthylcarbamoyl-3 (tribromo-2,4,6 N-méthylcarbamoyl-3 N-méthyl N-acétylamino-5 benzoyl) glycylamino-5 benzoïque]	20,8	0,92
CNC(=O)c1c(I)c(C(=O)NCC(=O)Nc2c(Br)c(C(=O)O)c(Br)c(C(=O)NCCO)c2Br)c(I)c(N(C)C(C)=O)c1I [compound 1, acide tribromo-2,4,6 N-hydroxyéthylcarbamoyl-3 (triiodo-2,4,6 N-méthylcarbamoyl-3 N-méthyl N-acétylamino-5 benzoyl) glycylamino-5 benzoique]	20,2	0,91
CNC(=O)c1c(I)c(NC(=O)CNC(=O)c2c(Br)cc(Br)c(N(C)C(C)=O)c2Br)c(I)c(C(=O)O)c1I [compound 5]	7,4	0,92
CNC(=O)c1c(I)c(C(=O)NCC(=O)Nc2c(Br)cc(Br)c(C(=O)O)c2Br)c(I)c(N(C)C(C)=O)c1I [compound 7]	10,0	–
CNC(=O)c1c(Br)c(C(=O)NCC(=O)Nc2c(I)cc(I)c(C(=O)O)c2I)c(Br)c(N(C)C(C)=O)c1Br [compound 8]	11,5	–
CNC(=O)c1c(Br)c(C(=O)NCCC(=O)Nc2c(I)cc(I)c(C(=O)O)c2I)c(Br)c(N(C)C(C)=O)c1Br [compound 12]	11,0	–
CNC(=O)c1c(Br)c(C(=O)NCCCC(=O)Nc2c(I)c(C(=O)O)c(I)c(C(=O)NCCO)c2I)c(Br)c(N(C)C(C)=O)c1Br [compound 13]	15,3	–

From patent publication EP0074307A1, “Mixed bromo-iodo benzene compounds and contrast products containing them” (Société dite: GUERBET S.A., priority 1981, dated 1983)
